From patent US20070066801A1 (priority 2003, published 2007)

What was measured:
F. tularensis LVS [1] = format: binding, Francisella tularensis
F. novicida [2] = format: binding, Francisella novicida
F. philomiragia [3] = format: binding, Francisella philomiragia
F. philomiragia [4] = format: binding, Francisella philomiragia; remark: listed apart in the source
F. novicida [5] = format: binding, Francisella novicida; remark: listed apart in the source
F. tularensis LVS [6] = format: binding, Francisella tularensis; remark: listed apart in the source
[7] = tested on: Staphylococcus aureus (ATCC 6538); format: binding
[8] = tested on: Enterococcus hirae (ATCC 8043); format: binding
E. coli DH5α = format: binding

Sequence | ratio of phage binding to F. tularensis LVS compared to F. philomiragia (F. tularensis LVS [1]) | effect of added peptide on binding of phage 4-4-2 to F. novicida (F. novicida [2]) | effect of trypsin digestion of the bacterial surface on phage binding to F. philomiragia (F. philomiragia [3]) | phage binding to F. tularensis LVS in 0.1×PBS (F. tularensis LVS [1]) | phage binding to F. philomiragia in 0.1×PBS (F. philomiragia [4]) | phage binding to F. novicida in 0.1×PBS (F. novicida [5]) | ratio of phage binding to F. novicida compared to F. philomiragia (F. novicida [5]) | effect of trypsin digestion of the bacterial surface on phage binding to F. tularensis LVS (F. tularensis LVS [6]) | other results
LPISNPLPIKRS [SEQ ID NO: 3] | no specific binding |  |  |  |  |  |  |  | 
SLFWTIPIPSFR [p442S, reference compound] |  | did not inhibit the binding of phage 4-4-2 |  |  |  |  |  |  | 
TGRHTPWPHFMP [OV1, reference compound] | approximately equal binding |  | increase in binding after trypsin treatment | Neither phage expressing peptides having the sequence of SEQ ID NO: 2 (phage 4-4-2) or SEQ ID NO: 4 (OV1 negative control) bound | Neither phage expressing peptides having the sequence of SEQ ID NO: 2 (phage 4-4-2) or SEQ ID NO: 4 (OV1 negative control) bound | Neither phage expressing peptides having the sequence of SEQ ID NO: 2 (phage 4-4-2) or SEQ ID NO: 4 (OV1 negative control) bound | approximately equal binding | increase in binding after trypsin treatment | phage binding to F. philomiragia in 1×PBS buffer (F. philomiragia [4]): equal to the binding of phage 4-4-2; phage binding to F. philomiragia in Tris-Mg buffer (F. philomiragia [4]): equal to or greater than the binding of phage 4-4-2; phage binding to F. novicida in Tris-Mg buffer (F. novicida [5]): equal to or greater than the binding of phage 4-4-2
TSITPWFFLSRP [p442] |  | decreased binding of phage 4-4-2 |  |  |  |  |  |  | 
TSITPWFFLSRP [phage 4-4-2] | > 100 fold |  | small but reproducible increase in binding | Neither phage expressing peptides having the sequence of SEQ ID NO: 2 (phage 4-4-2) or SEQ ID NO: 4 (OV1 negative control) bound | Neither phage expressing peptides having the sequence of SEQ ID NO: 2 (phage 4-4-2) or SEQ ID NO: 4 (OV1 negative control) bound | Neither phage expressing peptides having the sequence of SEQ ID NO: 2 (phage 4-4-2) or SEQ ID NO: 4 (OV1 negative control) bound | > 100 fold | distinct trypsin sensitivity | level of binding to S. aureus, fold lower than phage binding to F. novicida and F. tularensis LVS [7]: 20-100 fold; binding specificity of phage in Tris-Mg buffer (F. tularensis LVS [1]): showed specificity for the identification of F. tularensis LVS; effect of growth on TSB (versus Chamberlain minimal medium) on phage binding to F. tularensis LVS (F. tularensis LVS [1]): stimulatory effect observed with F. tularensis LVS was not as great; number of phage binding F. tularensis LVS in 1×PBS buffer (versus Tris-Mg) (F. tularensis LVS [1]): not decreased significantly; level of binding to E. hirae, fold lower than phage binding to F. novicida and F. tularensis LVS [8]: 20-100 fold; amount of phage binding to F. novicida in 1×PBS buffer (versus Tris-Mg) (F. novicida [5]): increased; effect of growth on TSB (versus Chamberlain minimal medium) on phage binding to F. novicida (F. novicida [5]): stimulated binding; phage binding to F. tularensis LVS after trypsin digestion, relative to no trypsin (F. tularensis LVS [6]): 10-20%; level of binding to E. coli, fold lower than phage binding to F. novicida and F. tularensis LVS (E. coli DH5α): 20-100 fold
